Experimental data as given in patent US11413295B2, “Oral preparation of obeticholic acid” (Intercept Pharmaceuticals, Inc., priority 2016, dated 2022).
In brackets after ≈: the same amount, converted by molar mass. Where two headings read alike, the source gives them in different places.

Columns and labels:
[1] = Obeticholic acid solubility in various test solutions; format: physicochemical; conditions: read-out: Dissolved concentration
[2] = Chemical stability: obeticholic acid dimer production by HPLC (Test Example 3); format: physicochemical
Description: The following assessments were carried out to see whether, in cases where the amorphous form of obeticholic acid was used, there were any changes in chemical stability even after wet granulation. Specifically, measurements were taken of the amounts in which obeticholic acid dimers were produced (referred to in Patent Document 2 as “Impurity 6,” “3α (3α, 7α-dihydroxy-6α-ethyl-5β-cholan-24-oyloxy)-7α-hydroxy-6α-ethyl-5β-cholan-24-oic acid,” and “6ECDCA dimer”), which were confirmed to have a high propensity to increase in the preparation process and stability tests among known related substances of obeticholic acid disclosed in Patent Document 2, for example.
Test tubes containing the obeticholic acid prepared in Example 19 and the obeticholic acid 20 mg FC tablets of Example 4 were stored under the following conditions. The amounts in which obeticholic acid dimer was produced before (initial) and after storage were measured in accordance with Test Example 3. […]
4 weeks at 60° C. (closed)
Acetonitrile/water (9/1) was added in an amount of exactly 10 mL to test tubes that had been retrieved from storage, and the contents were ultrasonically treated to extract the obeticholic acid. Following centrifugation (10 min at 3000 rpm), the supernatant was made into samples for HPLC assay (500 μg/mL obeticholic acid).
One tablet containing 20 mg obeticholic acid (per tablet) that had been retrieved from storage was introduced into a 40 mL graduated measuring flask. Acetonitrile/water (9/1) was added to the graduated measuring flask, the contents were ultrasonically treated (10 min), and it was confirmed that the tablet had disintegrated. The contents were thoroughly shaken (60 min at 300 rpm) using a shaker, and were again ultrasonically treated to extract the obeticholic acid. Acetonitrile/water (9/1) were added to a constant volume, followed by centrifugation (10 min at 3000 rpm), and the supernatant was made into samples for HPLC assay (500 μg/mL).
50 mg of obeticholic acid was weighed out into a 100 mL graduated measuring flask and dissolved using acetonitrile/water (9/1) (500 μg/mL). The resulting solution was diluted with acetonitrile/water (9/1) to prepare 15.0 μg/mL (3.0%), 5.0 μg/mL (1.0%), and 0.25 μg/mL (0.05%) standard solutions.
The above three standard solutions were used to produce a calibration curve, and the obeticholic acid dimer contained in the sample solutions was quantified. The conditions of analysis are shown below.
Detector: Charged particle detector
Column: by Sigma-Aldrich, SUPELCO Discovery C8 (particle size: 5 μm; internal
Mobile phase: Acetonitrile/methanol/acetic acid aqueous solution (pH 3.0) mixture (8/1/1)

- solubility ([1]; JP1, pH 1.2, simulated gastric fluid): 4.07 µg/mL (≈ 9.68 µM)
- solubility ([1]; JP2, pH 6.8, aqueous buffer): 306 µg/mL (≈ 729 µM)
- solubility ([1]; aqueous buffer, pH 3.0 McIlvaine buffer): 4.43 µg/mL (≈ 10.5 µM)
- solubility ([1]; aqueous buffer, pH 4.0 McIlvaine buffer): 4.66 µg/mL (≈ 11.1 µM)
- solubility ([1]; aqueous buffer, pH 5.0 McIlvaine buffer): 11.4 µg/mL (≈ 27.1 µM)
- solubility ([1]; aqueous buffer, pH 6.0 McIlvaine buffer): 60.6 µg/mL (≈ 144 µM)
- solubility ([1]; water): 21.4 µg/mL (≈ 51 µM)
- Amount of obeticholic acid dimer production ([2]; 50° C., 85% RH open 4 W): 0.83%
- Increase in obeticholic acid dimer from initial product ([2]; 50° C., 85% RH open 4 W): 0.79%
- Amount of obeticholic acid dimer production ([2]; 60° C. closed 4 W): 0.81%
- Increase in obeticholic acid dimer from initial product ([2]; 60° C. closed 4 W): 0.77%
- Amount of obeticholic acid dimer production ([2]; Initial): 0.04%
SMILES: CC[C@H]1[C@@H](O)[C@@H]2[C@H](CC[C@]3(C)[C@@H]([C@H](C)CCC(=O)O)CC[C@@H]23)[C@@]2(C)CC[C@@H](O)C[C@@H]12 [Obeticholic acid, 6α-ethyl-3α, 7 α-dihydroxy-5β-cholan-24-oic acid]
